Consider 8 compounds from ChEMBL document CHEMBL1201862, “PubChem BioAssay data set” (2004).

Structures are written as SMILES.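 Cultured in 96-well plates, cells were exposed to test compound for 48 hours across five concentrations. At the GI50, growth is halved.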 Active and inactive are the calls of the source. Cut-off read from the data, not from the text of the source: active = GI50 up to about 1.1 µM and inactive = higher.

Test systems include A498; A549; ACHN; CAKI-1; HCT-15; HOP-92; HT-29; IGROV-1; KM12; LXFL 529; M14; MOLT-4; OVCAR-8; SF-268; SF-295; SF-539; SR; TK-10; U-251; NCI-H522.
Common to all, as to assay: growth of human tumour cells (NCI), 48 h

Consider `Cn1cnc([N+](=O)[O-])c1Sc1nc2cc(Cl)c(F)cc2[nH]1`, for which the GI50 in the assay on A498 is 18.6 µM (inactive); in the assay with A549 it was 15.3 µM (inactive); in the assay on ACHN, 12.9 µM (inactive); in the assay with CAKI-1, 2.58 µM (inactive); in the assay with HCT-15 it was 4.37 µM; in the assay on HOP-92, 13.8 µM (inactive). The GI50 in the assay on HT-29 is 14.9 µM (inactive); in the assay on IGROV-1, 7.66 µM (inactive); in the assay on KM12, 15 µM (inactive); in the assay with LXFL 529, 5.7 µM (inactive); with M14 it was 13.5 µM (inactive); with MOLT-4 it was 2.08 µM (inactive). The GI50 with OVCAR-8 is 3.75 µM (inactive); in the assay on SF-268, 10.1 µM (inactive); with SF-295, 48.4 µM (inactive); with SF-539, 4.32 µM (inactive); in the assay on SR, 1.75 µM (inactive); in the assay on TK-10, 14.5 µM (inactive). Moreover, the GI50 in the assay on U-251 was 8.41 µM (inactive).
Consider `CNC(SC)=C1C(=O)OC(C)(C)OC1=O`, for which the GI50 is > 100 µM (inactive) with A498; > 100 µM (inactive) in the assay with A549; > 100 µM (inactive) in the assay with ACHN; > 100 µM (inactive) in the assay with CAKI-1; 19.8 µM in the assay on HCT-15; > 100 µM (inactive) with HOP-92. Also, the GI50 in the assay on HT-29, with IGROV-1, in the assay with KM12, in the assay on LXFL 529, with M14 and with MOLT-4 was > 100 µM (inactive) throughout. The GI50 with NCI-H522, in the assay with OVCAR-8, in the assay with SF-268, in the assay on SF-295, in the assay with SR and with TK-10 was > 100 µM (inactive) throughout. The GI50 in the assay on U-251 is 18.1 µM (inactive).
In the case of `CC(O)c1ccc[n+](Cc2ccccc2)c1` (stereo unspecified), the GI50 was > 400 µM (inactive) in the assay on A549; > 400 µM (inactive) with ACHN; > 400 µM (inactive) in the assay with CAKI-1; over 400 µM with HCT-15; > 400 µM (inactive) in the assay with HOP-92; > 400 µM (inactive) with HT-29. Moreover, the GI50 in the assay with IGROV-1, in the assay with KM12, in the assay on LXFL 529, in the assay on MOLT-4, in the assay with NCI-H522 and in the assay on OVCAR-8 was > 400 µM (inactive) each time. In addition, the GI50 in the assay on SF-268, with SF-295, in the assay on SF-539, with SR, in the assay on TK-10 and in the assay on U-251 was > 400 µM (inactive) each time.
Consider `O=C1c2ccccc2C(=O)C2C3c4ccccc4C(c4ccccc43)C12` (stereo unspecified), for which the GI50 with A549 is 28.7 µM (inactive); in the assay on ACHN, 30.6 µM (inactive); with HCT-15 it was 39 µM; in the assay on HT-29, 21.1 µM (inactive); in the assay with IGROV-1, 22.9 µM (inactive); with KM12 it was 28.2 µM (inactive). Further, the GI50 with LXFL 529 is 15.3 µM (inactive); with M14, 56.4 µM (inactive); in the assay with MOLT-4 it was 12.7 µM (inactive); with NCI-H522, 31.3 µM (inactive); in the assay on OVCAR-8, 12.6 µM (inactive); in the assay with SF-268, 13.4 µM (inactive). Besides, the GI50 in the assay on SF-295 is 12.8 µM (inactive); in the assay with SF-539 it was 12.5 µM (inactive); in the assay on SR, 14.4 µM (inactive); in the assay on TK-10, 24.5 µM (inactive); in the assay on U-251, 31 µM (inactive).
For the compound `COC(=O)c1cc2cc(OC)c(OC)cc2cc(C(=O)OC)c1=O`, the GI50 is > 100 µM (inactive) with A498; > 100 µM (inactive) in the assay with A549; > 100 µM (inactive) in the assay on ACHN; > 100 µM (inactive) with CAKI-1; over 100 µM in the assay with HCT-15; > 100 µM (inactive) in the assay on HOP-92. Further, the GI50 in the assay with HT-29, in the assay on IGROV-1, in the assay with KM12, with LXFL 529, in the assay with M14 and with MOLT-4 was > 100 µM (inactive) each time. The GI50 with NCI-H522, in the assay with OVCAR-8, in the assay on SF-268, with SF-295, in the assay with SF-539 and with TK-10 was > 100 µM (inactive) throughout. Moreover, the GI50 in the assay with U-251 is > 100 µM (inactive).
In the case of `COc1ccc(C2=NN(c3ccccc3)C[N+](c3ccc(C)cc3)=N2)cc1`, the GI50 in the assay with A498 is 63 µM (inactive); in the assay with A549, 59.7 µM (inactive); in the assay with ACHN it was 50.2 µM (inactive); in the assay on HCT-15, 51.2 µM; in the assay with HT-29, 73.1 µM (inactive); in the assay with IGROV-1, 39.3 µM (inactive). Moreover, the GI50 is > 10 µM (inactive) with KM12; 16.3 µM (inactive) in the assay on LXFL 529; 19.8 µM (inactive) with MOLT-4; 12.7 µM (inactive) in the assay on NCI-H522; 78.2 µM (inactive) in the assay with OVCAR-8; 70.6 µM (inactive) in the assay on SF-268. The GI50 in the assay on SF-295 was > 100 µM (inactive); with SR, 34 µM (inactive); with TK-10, > 100 µM (inactive); in the assay with U-251, 20.6 µM (inactive).
Turning to `O=C(CCN1CCN(c2ccccc2)CC1)N1CCc2c([nH]c3ccccc23)C1c1cccnc1` (stereo unspecified), the GI50 is 19.1 µM (inactive) in the assay on A498; 14.8 µM (inactive) in the assay on A549; 20 µM (inactive) with ACHN; 18.1 µM (inactive) with CAKI-1; 15.2 µM with HCT-15; 18.5 µM (inactive) with HOP-92. The GI50 was 15 µM (inactive) with HT-29; 39.7 µM (inactive) with IGROV-1; 18 µM (inactive) with KM12; 16.3 µM (inactive) with LXFL 529; 15.8 µM (inactive) in the assay on M14; 12 µM (inactive) with MOLT-4. The GI50 is 15.4 µM (inactive) in the assay on NCI-H522; 16.6 µM (inactive) with OVCAR-8; > 10 µM (inactive) in the assay with SF-295; 18.7 µM (inactive) in the assay on SF-539; 24.7 µM (inactive) in the assay on SR; 5.81 µM (inactive) with TK-10. In addition, the GI50 in the assay on U-251 is 16.4 µM (inactive).
Take `O=C(c1ccc(Cl)cc1)N(C(=S)N1CCN(c2ccccn2)CC1)c1ccccc1`: the GI50 in the assay on A549 is 94.2 µM (inactive); with ACHN it was > 100 µM (inactive); in the assay on CAKI-1, > 100 µM (inactive); in the assay with HCT-15, over 100 µM; in the assay with HOP-92 it was > 100 µM (inactive); with HT-29 it was > 100 µM (inactive). Also, the GI50 in the assay on IGROV-1 is > 100 µM (inactive); in the assay with KM12, > 100 µM (inactive); in the assay with LXFL 529 it was 55.2 µM (inactive); in the assay with M14, > 100 µM (inactive); with MOLT-4, 43.6 µM (inactive); in the assay on NCI-H522 it was > 100 µM (inactive). Besides, the GI50 with OVCAR-8 is > 100 µM (inactive); in the assay on SF-268, > 100 µM (inactive); in the assay on SF-295, 99.3 µM (inactive); in the assay with SF-539, > 100 µM (inactive); in the assay on SR it was 39.3 µM (inactive); in the assay on TK-10, > 100 µM (inactive). For the same compound, the GI50 in the assay with U-251 was > 100 µM (inactive).
